Data: US9850283B2, “Macrocyclic inhibitors of the PD-1/PD-L1 and CD80(B7-1)/PD-L1 protein/protein interactions” (BRISTOL-MYERS SQUIBB COMPANY, priority 2013, dated 2017)
Read-outs that look alike come from different tables or passages of the source. Starred links: 1 amine or outer side, 2 acyl side, 3 side chain; linkers in the order of their positions; H or OH if unused. Positions of bridges follow the written chain, without caps; N, C: chain ends. Non-standard residues stand in square brackets, D forms with d. Residues, ends and D or L forms follow the SMILES beside them. ξ: configuration not given here. PEG12 = NCCOCCOCCOCCOCCOCCOCCOCCOCCOCCOCCOCCOCCC(=O)O; ξPro(4R-NH2) = O=C(C1C[C@@H](N[*:3])CN1[*:1])[*:2]; ξPro(4R-OH) = O=C(O)C1C[C@@H](O)CN1; Hyp = O=C(O)[C@@H]1C[C@@H](O)CN1; NMeF = CN[C@@H](Cc1ccccc1)C(=O)O; NMeNle = CCCC[C@H](NC)C(=O)O; NMeS = CN[C@@H](CO)C(=O)O; NMeA = CN[C@@H](C)C(=O)O; Orn = NCCC[C@H](N)C(=O)O; ξP = O=C(O)C1CCCN1; Sar = CNCC(=O)O

Target: T1, Human PD-L1/PD-1 (Homo sapiens, UniProt Q9NZQ7)
T1 construct: made in house; host or cells: HEK293T
T1 sequence (Q9NZQ7 with tags, fused parts or gaps): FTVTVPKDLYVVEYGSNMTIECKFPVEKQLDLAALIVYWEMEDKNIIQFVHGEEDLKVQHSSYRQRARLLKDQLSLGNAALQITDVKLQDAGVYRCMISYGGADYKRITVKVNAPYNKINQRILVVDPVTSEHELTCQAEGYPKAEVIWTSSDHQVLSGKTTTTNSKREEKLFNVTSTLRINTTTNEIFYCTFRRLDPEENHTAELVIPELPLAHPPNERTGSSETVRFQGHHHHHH
Assay: HTRF PD-1-Ig/PD-L1-His binding assay (human PD-L1)
From the text: The ability of the macrocyclic peptides of the present disclosure to bind to PD-L1 was investigated using a PD-1/PD-L1 Homogenous Time-Resolved Fluorescence (HTRF) binding assay.
Homogenous Time-Resolved Fluorescence (HTRF) Assays of Binding of Soluble PD-1 to Soluble PD-L1. Soluble PD-1 and soluble PD-L1 refers to proteins with carboxyl-end truncations that remove the transmembrane-spanning regions and are fused to heterologous sequences, specifically the Fc portion of the human immunoglobuling G sequence (Ig) or the hexahistidine epitope tag (His). All binding studies were performed in an HTRF assay buffer consisting of dPBS supplemented with 0.1% (w/v) bovine serum albumin and 0.05% (v/v) Tween-20. […] PD-L1 fusion proteins from either human, cynomologous macaques, or mouse were used. HTRF detection was achieved using europium crypate-labeled anti-Ig monoclonal antibody (1 nM final) and allophycocyanin (APC) labeled anti-His monoclonal antibody (20 nM final). Antibodies were diluted in HTRF detection buffer and 5 μl was dispensed on top of binding reaction.

[1] = Table 8, Compound No. 1 variant macrocyclic peptides, read-out: HTRF Human PD-L1/PD-1 Binding Assay IC50
[2] = Table 10, Compound No. 116 variant macrocyclic peptides, read-out: HTRF Human PD-L1/PD-1 Binding Assay IC50

Row | IC50 [1] | Compound | also measured
1 |  | CCCC[C@H]1C(=O)NCC(=O)N[C@@H](CC(=O)O)C(=O)N[C@@H](C(C)C)C(=O)N(C)[C@@H](Cc2ccccc2)C(=O)N[C@@H](Cc2ccc(O)cc2)C(=O)N(C)CC(=O)N[C@@H](Cc2c[nH]c3ccccc23)C(=O)N[C@@H](Cc2ccc(O)cc2)C(=O)N[C@@H](CC(C)C)C(=O)N[C@H](C(=O)NCC(N)=O)CSCC(=O)N[C@@H](Cc2ccccc2)C(=O)N(C)[C@@H](Cc2ccccc2)C(=O)N1C [Compound No. 78] (HELM PEPTIDE1{[O=C(C[*:3])[*:2]].F.[meF].[CCCC[C@@H](C(=O)[*:2])N(C)[*:1]].G.D.V.[meF].Y.[Sar].W.Y.L.C.G.[am]}$PEPTIDE1,PEPTIDE1,1:R3-14:R3$$$V2.0) | IC50 (Table 9, Compound No. 71 variant macrocyclic peptides, read-out: HTRF Human PD-L1/PD-1 Binding Assay IC50): 14 nM
2 | 27 nM | CCCC[C@H]1C(=O)N(C)[C@@H](CCCC)C(=O)N[C@@H](CCCNC(=N)N)C(=O)N[C@@H](C(=O)NCC(N)=O)CSCC(=O)N[C@@H](Cc2c[nH]c3ccccc23)C(=O)N(C)[C@@H](C)C(=O)N[C@@H](CC(N)=O)C(=O)N2CCC[C@H]2C(=O)N[C@@H](Cc2cnc[nH]2)C(=O)N[C@@H](CC(C)C)C(=O)N(C)CC(=O)N[C@@H](Cc2c[nH]c3ccccc23)C(=O)N[C@@H](CO)C(=O)N[C@@H](Cc2c[nH]c3ccccc23)C(=O)N1C [Compound No. 25] ({CH2CO}-W[NMeA]NPHL[Sar]WSW[NMeNle][NMeNle]R[dC]G-NH2; thioether N-14) | 
3 | 40 nM | CCCC[C@H]1C(=O)N(C)[C@@H](CCCC)C(=O)N[C@@H](CCCNC(=N)N)C(=O)N[C@H](C(=O)NCC(N)=O)CSCC(=O)N[C@@H](Cc2ccccc2)C(=O)N(C)[C@@H](C)C(=O)N[C@@H](CC(N)=O)C(=O)N2C[C@H](N)CC2C(=O)N[C@@H](Cc2cnc[nH]2)C(=O)N[C@@H](CC(C)C)C(=O)N(C)CC(=O)N[C@@H](Cc2c[nH]c3ccccc23)C(=O)N[C@@H](CO)C(=O)N[C@@H](Cc2c[nH]c3ccccc23)C(=O)N1C (stereo partly drawn) [Compound No. 48] ({CH2CO}-F[NMeA]N[ξPro(4R-NH2)]HL[Sar]WSW[NMeNle][NMeNle]RCG-NH2; thioether N-14) | 
4 | > 10000 nM | CCCC[C@H]1C(=O)N(C)[C@@H](CCCC)C(=O)N[C@@H](CCCNC(=N)N)C(=O)N[C@H](C(=O)NCC(N)=O)CSCC(=O)N[C@@H](Cc2ccccc2)C(=O)N(C)[C@@H](C)C(=O)N[C@@H](CC(N)=O)C(=O)N2CCC[C@H]2C(=O)N[C@@H](Cc2c[nH]cn2)C(=O)N[C@@H](CC(C)C)C(=O)N(C)CC(=O)N[C@@H](Cc2c[nH]c3ccccc23)C(=O)N[C@H](CCC(N)=O)C(=O)N[C@@H](Cc2c[nH]c3ccccc23)C(=O)N1C [Compound No. 59] ({CH2CO}-F[NMeA]NPHL[Sar]W[dQ]W[NMeNle][NMeNle]RCG-NH2; thioether N-14 (inferred)) | 
5 |  | CCCC[C@H]1C(=O)N(C)[C@@H](CCCC)C(=O)N[C@@H](CCCN)C(=O)N[C@H](C(=O)NCC(N)=O)CSCC(=O)N[C@@H](Cc2ccc(O)cc2)C(=O)N2CCC[C@H]2C(=O)N[C@@H](CC(N)=O)C(=O)N2CCC[C@H]2C(=O)N[C@@H](Cc2cnc[nH]2)C(=O)N[C@@H](CC(C)C)C(=O)N2C[C@H](O)C[C@H]2C(=O)N[C@@H](Cc2c[nH]c3ccccc23)C(=O)N[C@@H](CO)C(=O)N[C@@H](Cc2c[nH]c3ccccc23)C(=O)N1C [Example 1173] ({CH2CO}-YPNPHL[Hyp]WSW[NMeNle][NMeNle][Orn]CG-NH2; thioether N-14) | IC50 (read-out: HTRF IC50 value): 2.71 nM
6 | 27 nM | CCCC[C@H]1C(=O)N(C)[C@@H](CCCC)C(=O)N[C@@H](CCCNC(=N)N)C(=O)N[C@H](C(=O)NCC(N)=O)CSCC(=O)N[C@@H](Cc2ccccc2)C(=O)N(C)[C@@H](C)C(=O)N[C@@H](CC(N)=O)C(=O)N2C[C@H](O)CC2C(=O)N[C@@H](Cc2cnc[nH]2)C(=O)N[C@@H](CC(C)C)C(=O)N(C)CC(=O)N[C@@H](Cc2c[nH]c3ccccc23)C(=O)N[C@@H](CO)C(=O)N[C@@H](Cc2c[nH]c3ccccc23)C(=O)N1C (stereo partly drawn) [Compound No. 47] ({CH2CO}-F[NMeA]N[ξPro(4R-OH)]HL[Sar]WSW[NMeNle][NMeNle]RCG-NH2; thioether N-14) | 
7 | 13 nM | CCCC[C@H]1C(=O)N(C)[C@@H](CCCC)C(=O)N[C@@H](CCCNC(=N)N)C(=O)N[C@H](C(=O)NCC(N)=O)CSCC(=O)N[C@@H](Cc2ccccc2)C(=O)N(C)[C@@H](C)C(=O)N[C@@H](CC(N)=O)C(=O)N2CCC[C@H]2C(=O)N[C@@H](Cc2cnc[nH]2)C(=O)N[C@@H](CC(C)C)C(=O)N(C)[C@@H](CO)C(=O)N[C@@H](Cc2c[nH]c3ccccc23)C(=O)N[C@@H](CO)C(=O)N[C@@H](Cc2c[nH]c3ccccc23)C(=O)N1C [Compound No. 56] ({CH2CO}-F[NMeA]NPHL[NMeS]WSW[NMeNle][NMeNle]RCG-NH2; thioether N-14) | 
8 |  | CCCC[C@H]1C(=O)N(C)[C@@H](CCCC)C(=O)N[C@@H](CC(C)C)C(=O)N[C@H](C(=O)NCC(=O)NCCOCCOCCOCCOCCOCCOCCOCCOCCOCCOCCOCCOCCC(N)=O)CSCC(=O)N[C@@H](Cc2ccccc2)C(=O)N(C)[C@@H](C)C(=O)N[C@@H](CC(N)=O)C(=O)N2CCC[C@H]2C(=O)N[C@@H](Cc2cnc[nH]2)C(=O)N[C@@H](Cc2cnc[nH]2)C(=O)N[C@@H](CO)C(=O)N[C@@H](Cc2c[nH]c3ccccc23)C(=O)N[C@@H](CCCNC(=N)N)C(=O)N[C@@H](Cc2c[nH]c3ccccc23)C(=O)N1C [Compound No. 117] ({CH2CO}-F[NMeA]NPHHSWRW[NMeNle][NMeNle]LCG[PEG12]-NH2; thioether N-14) | IC50 [2]: 21 nM
9 | 31 nM | CCCC[C@H]1C(=O)N(C)[C@@H](CCCC)C(=O)N[C@@H](CCCNC(=N)N)C(=O)N[C@H](C(=O)NCC(N)=O)CSCC(=O)N[C@@H](Cc2ccccc2)C(=O)N(C)[C@@H](C)C(=O)N[C@@H](C)C(=O)N2CCCC2C(=O)N[C@@H](Cc2cnc[nH]2)C(=O)N[C@@H](CC(C)C)C(=O)N(C)CC(=O)N[C@@H](Cc2c[nH]c3ccccc23)C(=O)N[C@@H](CO)C(=O)N[C@@H](Cc2c[nH]c3ccccc23)C(=O)N1C (some centres unmarked) [Compound No. 8] ({CH2CO}-F[NMeA]A[ξP]HL[Sar]WSW[NMeNle][NMeNle]RCG-NH2; thioether N-14) | 
10 |  | CCCC[C@H]1C(=O)N(C)CC(=O)N[C@@H](CC(=O)O)C(=O)N[C@@H](C(C)C)C(=O)N(C)[C@@H](Cc2ccccc2)C(=O)N[C@@H](Cc2ccc(O)cc2)C(=O)N(C)CC(=O)N[C@@H](Cc2c[nH]c3ccccc23)C(=O)N[C@@H](Cc2ccc(O)cc2)C(=O)N[C@@H](CC(C)C)C(=O)N[C@H](C(=O)NCC(=O)NCCOCCOCCOCCOCCOCCOCCOCCOCCOCCOCCOCCOCCC(N)=O)CSCC(=O)N[C@@H](Cc2ccccc2)C(=O)N(C)[C@@H](Cc2ccccc2)C(=O)N1C [Compound No. 118] ({CH2CO}-F[NMeF][NMeNle][Sar]DV[NMeF]Y[Sar]WYLCG[PEG12]-NH2; thioether N-13) | IC50 [2]: 3 nM
11 | 9 nM | CCCC[C@H]1C(=O)N(C)[C@@H](CCCC)C(=O)N[C@@H](CCCNC(=N)N)C(=O)N[C@H](C(N)=O)CSCC(=O)N[C@@H](Cc2ccccc2)C(=O)N(C)[C@@H](C)C(=O)N[C@@H](CC(N)=O)C(=O)N2CCCC2C(=O)N[C@@H](Cc2cnc[nH]2)C(=O)N[C@@H](CC(C)C)C(=O)N(C)CC(=O)N[C@@H](Cc2c[nH]c3ccccc23)C(=O)N[C@@H](CO)C(=O)N[C@@H](Cc2c[nH]c3ccccc23)C(=O)N1C (some centres unmarked) [Compound No. 24] ({CH2CO}-F[NMeA]N[ξP]HL[Sar]WSW[NMeNle][NMeNle]RC-NH2; thioether N-14) | 
